Results taken from ChEMBL document CHEMBL5579851, “Synthesis and antifungal evaluation of novel triazole derivatives bearing a pyrazole-methoxyl moiety” (Eur J Med Chem, 2024).

Columns and labels:
[1] = Cytotoxicity against HUVEC cells assessed as cell viability at 128 ug/ml incubated for 24 hrs by CCK-8 assay relative to control; format: toxicity, cell-based; conditions: human, at 128 µg/mL, read-out: Activity
Saccharomyces cerevisiae [2] = assay: Antifungal activity against recombinant Saccharomyces cerevisiae Y2301 overexpressing ScErg11 Y140F mutant assessed as inhibition of fungal growth incubated for 48 hrs by CLSI based broth microdilution assay; format: functional
Saccharomyces cerevisiae [3] = assay: Antifungal activity against recombinant Saccharomyces cerevisiae Y2462 overexpressing ScErg11/ScNcp1 assessed as inhibition of fungal growth incubated for 48 hrs by CLSI based broth microdilution assay; format: functional
[Candida] auris [4] = Antifungal activity against fluconazole-resistant Candida auris 918 assessed as inhibition of fungal growth incubated for 48 hrs by CLSI based broth microdilution assay; format: functional; conditions: Candidozyma auris
Pichia kudriavzevii = assay: Antifungal activity against Candida krusei 4996 assessed as inhibition of fungal growth incubated for 48 hrs by CLSI based broth microdilution assay; format: functional
Saccharomyces cerevisiae [5] = assay: Antifungal activity against recombinant Saccharomyces cerevisiae Y2768 overexpressing CauErg11 T132F mutant assessed as inhibition of fungal growth incubated for 48 hrs by CLSI based broth microdilution assay; format: functional
Saccharomyces cerevisiae [6] = assay: Antifungal activity against recombinant Saccharomyces cerevisiae Y2767 overexpressing CauErg11 assessed as inhibition of fungal growth incubated for 48 hrs by CLSI based broth microdilution assay; format: functional
Saccharomyces cerevisiae [7] = assay: Antifungal activity against recombinant Saccharomyces cerevisiae Y2721 overexpressing CpErg11/CpCpr assessed as inhibition of fungal growth incubated for 48 hrs by CLSI based broth microdilution assay; format: functional
[Candida] auris [8] = Antifungal activity against fluconazole-resistant Candida auris 891 assessed as inhibition of fungal growth incubated for 48 hrs by CLSI based broth microdilution assay; format: functional; conditions: Candidozyma auris
Candida albicans [9] = assay: Antifungal activity against fluconazole-resistant Candida albicans 901 assessed as inhibition of fungal growth incubated for 48 hrs by CLSI based broth microdilution assay; format: functional
Saccharomyces cerevisiae [10] = assay: Antifungal activity against recombinant Saccharomyces cerevisiae Y525 overexpressing CaMdr1 assessed as inhibition of fungal growth incubated for 48 hrs by CLSI based broth microdilution assay; format: functional
Saccharomyces cerevisiae [11] = assay: Antifungal activity against recombinant Saccharomyces cerevisiae Y2513 overexpressing ScErg11 Y140H mutant assessed as inhibition of fungal growth incubated for 48 hrs by CLSI based broth microdilution assay; format: functional
Candida albicans [12] = assay: Antifungal activity against fluconazole-resistant Candida albicans 904 assessed as inhibition of fungal growth incubated for 48 hrs by CLSI based broth microdilution assay; format: functional
Saccharomyces cerevisiae [13] = assay: Antifungal activity against recombinant Saccharomyces cerevisiae Y2765 overexpressing CauMdr1 assessed as inhibition of fungal growth incubated for 48 hrs by CLSI based broth microdilution assay; format: functional
Saccharomyces cerevisiae [14] = assay: Antifungal activity against recombinant Saccharomyces cerevisiae Y2300 overexpressing ScErg11 assessed as inhibition of fungal growth incubated for 48 hrs by CLSI based broth microdilution assay; format: functional
Saccharomyces cerevisiae [15] = assay: Antifungal activity against recombinant Saccharomyces cerevisiae Y2374 overexpressing CgErg11 assessed as inhibition of fungal growth incubated for 48 hrs by CLSI based broth microdilution assay; format: functional
Saccharomyces cerevisiae [16] = assay: Antifungal activity against recombinant Saccharomyces cerevisiae Y2716 overexpressing CpErg11 Y132F mutant/ CpCpr assessed as inhibition of fungal growth incubated for 48 hrs by CLSI based broth microdilution assay; format: functional
Candida albicans [17] = assay: Antifungal activity against Candida albicans SC5314 assessed as inhibition of fungal growth incubated for 48 hrs by CLSI based broth microdilution assay; format: functional
Saccharomyces cerevisiae [18] = assay: Antifungal activity against recombinant Saccharomyces cerevisiae Y2769 overexpressing CauErg11 K143R mutant assessed as inhibition of fungal growth incubated for 48 hrs by CLSI based broth microdilution assay; format: functional
Saccharomyces cerevisiae [19] = assay: Antifungal activity against recombinant Saccharomyces cerevisiae Y2766 overexpressing CauCdr1 assessed as inhibition of fungal growth incubated for 48 hrs by CLSI based broth microdilution assay; format: functional
Saccharomyces cerevisiae [20] = assay: Antifungal activity against recombinant Saccharomyces cerevisiae Y2711 overexpressing CnErg11 assessed as inhibition of fungal growth incubated for 48 hrs by CLSI based broth microdilution assay; format: functional
Saccharomyces cerevisiae [21] = assay: Antifungal activity against recombinant Saccharomyces cerevisiae Y570 overexpressing CaCdr1 assessed as inhibition of fungal growth incubated for 48 hrs by CLSI based broth microdilution assay; format: functional
Cryptococcus neoformans = assay: Antifungal activity against Cryptococcus neoformans 32609 assessed as inhibition of fungal growth incubated for 72 hrs by CLSI based broth microdilution assay; format: functional
Nakaseomyces glabratus = assay: Antifungal activity against Candida glabrata 537 assessed as inhibition of fungal growth incubated for 48 hrs by CLSI based broth microdilution assay; format: functional
Candida albicans [22] = assay: Antifungal activity against Candida albicans 10231 assessed as inhibition of fungal growth incubated for 48 hrs by CLSI based broth microdilution assay; format: functional
Candida tropicalis = assay: Antifungal activity against Candida tropicalis 8915 assessed as inhibition of fungal growth incubated for 48 hrs by CLSI based broth microdilution assay; format: functional
[Candida] auris [23] = Antifungal activity against fluconazole-resistant Candida auris 919 assessed as inhibition of fungal growth incubated for 48 hrs by CLSI based broth microdilution assay; format: functional; conditions: Candidozyma auris
Candida parapsilosis = assay: Antifungal activity against Candida parapsilosis 22019 assessed as inhibition of fungal growth incubated for 48 hrs by CLSI based broth microdilution assay; format: functional; conditions: Lodderomyces parapsilosis
Saccharomyces cerevisiae [24] = assay: Antifungal activity against recombinant Saccharomyces cerevisiae Y2459 overexpressing CaErg11/CaCpr assessed as inhibition of fungal growth incubated for 48 hrs by CLSI based broth microdilution assay; format: functional
Saccharomyces cerevisiae [25] = assay: Antifungal activity against recombinant Saccharomyces cerevisiae Y2411 overexpressing ScErg11 assessed as inhibition of fungal growth incubated for 48 hrs by CLSI based broth microdilution assay; format: functional

C[C@@H]1[C@H](O)[C@@H](C)/C=C/C=C/C=C/C=C/C=C/C=C/C=C/[C@H](O[C@@H]2O[C@H](C)[C@@H](O)[C@H](N)[C@@H]2O)C[C@@H]2O[C@](O)(C[C@@H](O)C[C@@H](O)[C@H](O)CC[C@@H](O)C[C@@H](O)CC(=O)O[C@H]1C)C[C@H](O)[C@H]2C(=O)O [AMPHOTERICIN B]
30.5%: viability at 24 h, 128 ug/ml [1]

C[C@@H](c1nc(-c2ccc(C#N)cc2)cs1)[C@](O)(Cn1cncn1)c1ccc(F)cc1F [RAVUCONAZOLE]
0.016 µg/mL: MIC (Saccharomyces cerevisiae [2]) | MIC (Saccharomyces cerevisiae [6]) | MIC (Saccharomyces cerevisiae [13])
≤ 0.125 µg/mL: MIC (Candida albicans [17]) | MIC (Cryptococcus neoformans) | MIC (Nakaseomyces glabratus) | MIC (Candida albicans [22]) | MIC (Candida parapsilosis)
1 µg/mL: MIC ([Candida] auris [4]) | MIC (Pichia kudriavzevii) | MIC ([Candida] auris [8]) | MIC ([Candida] auris [23])
8 µg/mL: MIC (Candida tropicalis)
0.063 µg/mL: MIC (Saccharomyces cerevisiae [10])
2 µg/mL: MIC (Saccharomyces cerevisiae [19])
0.008 µg/mL: MIC (Saccharomyces cerevisiae [3]) | MIC (Saccharomyces cerevisiae [5]) | MIC (Saccharomyces cerevisiae [7]) | MIC (Saccharomyces cerevisiae [11]) | MIC (Saccharomyces cerevisiae [14]) | MIC (Saccharomyces cerevisiae [15]) | MIC (Saccharomyces cerevisiae [16]) | MIC (Saccharomyces cerevisiae [18]) | MIC (Saccharomyces cerevisiae [20]) | MIC (Saccharomyces cerevisiae [24]) | MIC (Saccharomyces cerevisiae [25])
16 µg/mL: MIC (Candida albicans [9]) | MIC (Candida albicans [12]) | MIC (Saccharomyces cerevisiae [21])
